Legend:
[1] = test system: PAE cells expressing VEGFR3; test: Chemotaxis assay (modified Boyden chamber), PAE/VEGFR-3 toward VEGF-C; assay type: cell-based, porcine; conditions: Sus scrofa, 10 μM compound, VEGF-C as chemo-attractant, absence of serum, read-out: Chemotaxis: VEGFR-3 inhibition of cell migration (%) at 10 μM compound concentration
Protocol: (§1) Additionally, the effect of the compounds was tested in this capacity of influencing chemotaxis. The test compounds were tested in porcine aorta endothelial (PAE) cells expressing VEGFR2 and VEGFR3 (PAE/VEGFR-2 and PAE/VEGFR-3). The method used is a modified Boyden chamber assay. The migration of the PAE cells expressing VEGFR2 and VEGFR3 receptors toward VEGF-A and VEGF-C respectively used as chemo-attractant was studied through micropore polycarbonate filter and was scored in the absence of serum. The assay was performed in the presence of compounds at 10 μM.
(§2) In Table 1, data from both the cell shape assay and the chemotaxis assay are shown. Thus, under “Cell Shape: PAE/VEGFR-2 with VEGF antagonist conc. (μM)” and “Cell Shape: PAE/VEGFR-3 with VEGF antagonist conc. (μM)” the concentration of the indicated inventive compound that gave restitution of cell morphology in the cell shape assay is shown. Data under “Chemotaxis: VEGFR-2% inhibition of cell migration” and “Chemotaxis: VEGFR-3% inhibition of cell migration” show the percentage inhibition of PAE cells expressing VEGFR-2 or 3 in the presence of 10 μM of the indicated inventive compound.

[2] = test system: PAE cells expressing VEGFR2; test: Chemotaxis assay (modified Boyden chamber), PAE/VEGFR-2 toward VEGF-A; assay type: cell-based, porcine; conditions: VEGF-A as chemo-attractant, absence of serum; for inhibition at 10 µM: Sus scrofa, PAE, 10 μM compound, read-out: Chemotaxis: VEGFR-2 inhibition of cell migration (%) at 10 μM compound concentration
Protocol: as §1, §2

[3] = test system: PAE/VEGFR-2 cells; test: Cell shape assay, PAE/VEGFR-2 cells with VEGF-A; assay type: cell-based, porcine
Protocol: (§3) One of the used assays comprised a culture of PAE/VEGFR-2 and PAE/VEGFR3 cells. Morphological changes of the cells were recorded microscopically after addition of VEGF-A and VEGF-C respectively, followed by the test compound at a final concentration up to 100 μM. Growth inhibitions of the PAE/VEGFR-2 cells were detected in the presence of the compound of Example 1 according to the invention at 10 μM or lower. Furthermore, the inventive compounds were tested in PAE/VEGFR-3 cells and morphological changes of the cells were recorded microscopically after addition of the VEGF-C, followed by the test compound at a final concentration up to 100 μM. Growth inhibitions of the PAE/VEGFR-3 cells were detected in the presence of several of Examples according to the invention. The compounds were tested at 10, 50 and 100 μM. The effect of the test compounds in Table 1 is expressed as concentration of compound that inhibits the cell morphology induced by VEGF A and VEGF C. No effect means that no morphological changes were seen up to 100 μM compound concentrations.
as §2

[4] = test system: T241 wt mouse fibrosarcoma tumor cells; test: Tumor synograft model; assay type: in vivo, C57B1 mice; conditions: oral administration 25 mg/kg/day for 10 days, subcutaneous T241 tumors in mice, compared with vehicle
Protocol: FIG. 1 is a plot of the tumor volume (mL) in mice having received subcutaneously implanted T241 wt mouse fibrosarcoma tumor cells, as a function of days of therapy by oral administration at 25 mg/kg/day of the compound of Example 1 of the invention. This is compared to administration of vehicle only.
Female 6-week-old C57B1 mice were used for tumor studies. […] T241 wt mouse fibrosarcoma tumor cells growing in logarithmic phase were harvested and resuspended in media, and a single cell solution in a volume of 100 μL was implanted subcutaneously at the right flank of each animal. 6 Mice were used in the treated groups and 6 mice were used in the control groups. Systemic treatment by oral administration injections with either 50 μl of vehicle or the inventive compound (the compound of Example 1) (25 mg/kg/day) was begun at day at day 0 (zero). The inventive compound was administrated for 10 days. Visible tumors were present day 5-10 after implantation. Primary tumors were measured with digital calipers on the days indicated. Tumor volumes were calculated according to the formula: Length×width^2×0.52 as reported. […] It takes a significant number of days for the treated animals to reach the same tumor volume as the vehicle treated animals.

[5] = test system: PAE/VEGFR-3 cells; test: Cell shape assay, PAE/VEGFR-3 cells with VEGF-C; assay type: cell-based, porcine; conditions: VEGF-C induced cell morphology, tested at 10, 50 and 100 μM, No effect = no morphological changes up to 100 μM; for minimal effective concentration: Sus scrofa, read-out: Cell Shape: PAE/VEGFR-3 with VEGF antagonist conc. (μM) that gives inhibition
Protocol: as §3, §2

[6] = VEGF-A induced cell morphology, tested at 10, 50 and 100 μM, No effect = no morphological changes up to 100 μM

Question: Which results are given for CNC(=O)c1ccc2ncc(C(=O)OCn3ccnc3)c(Nc3ccc(OC)cc3)c2c1 [Example 1, (1H-imidazol-1-yl)methyl 4-(4-methoxyphenylamino)-6-(methylcarbamoyl)-quinoline-3-carboxylate]?
Answer: inhibition at 10 µM [1]: 53%; inhibition at 10 µM [2]: 52%; minimal effective concentration ([3]; Sus scrofa, VEGF-A induced cell morphology, tested at 10, 50 and 100 μM, No effect = no morphological changes up to 100 μM, read-out: Cell Shape: PAE/VEGFR-2 with VEGF antagonist conc. (μM) that gives inhibition): 10 µM; Concentration at which growth inhibitions of the PAE/VEGFR-2 cells were detected ([3]; after addition of VEGF-A, final concentration up to 100 μM): ≤ 10 µM; Tumor volume, effectiveness in the animal model (FIG. 1) [4]: convincing results for its effectiveness

Question: Which results are given for CNC(=O)c1ccc2ncc(C(=O)OCN(C)C(=O)OC)c(Nc3ccc(OC)cc3)c2c1 [Example 2, (Methoxycarbonyl(methyl)amino)methyl 4-(4-methoxyphenylamino)-6-(methylcarbamoyl)quinoline-3-carboxylate]?
Answer: inhibition at 10 µM [1]: 45%; inhibition at 10 µM [2]: 39%; Cell Shape: PAE/VEGFR-2 with VEGF antagonist conc. (μM) that gives inhibition [3, 6]: No effect; Cell Shape: PAE/VEGFR-3 with VEGF antagonist conc. (μM) that gives inhibition [5]: No effect

Question: What does the source list for CNC(=O)c1ccc2ncc(C(=O)OCN(C)C(=O)c3ccccc3)c(Nc3ccc(OC)cc3)c2c1 [Example 3, (N-methylbenzamido)methyl 4-(4-methoxyphenylamino)-6-(methylcarbamoyl)-quinoline-3-carboxylate]?
Answer: inhibition at 10 µM [1]: 36%; inhibition at 10 µM [2]: 28%; Cell Shape: PAE/VEGFR-2 with VEGF antagonist conc. (μM) that gives inhibition [3, 6]: No effect; Cell Shape: PAE/VEGFR-3 with VEGF antagonist conc. (μM) that gives inhibition [5]: No effect

Question: Which inhibition at 10 µM [1] does the source give for CNC(=O)c1ccc2ncc(C(=O)OCCN(C)C)c(Nc3ccc(OC)cc3)c2c1 [Example 4, 2-(dimethylamino)ethyl 4-(4-methoxyphenylamino)-6-(methylcarbamoyl)-quinoline-3-carboxylate] here?
Answer: The inhibition at 10 µM was 63%.

Question: And the inhibition at 10 µM [2]?
Answer: Its inhibition at 10 µM is 21%.

Question: What about the “Cell Shape: PAE/VEGFR-2 with VEGF antagonist conc. (μM) that gives inhibition” value [3, 6] of the same molecule?
Answer: Its value is “No effect”.

Question: And the minimal effective concentration [5]?
Answer: Its minimal effective concentration is 100 µM.

Question: With CNC(=O)c1ccc2ncc(C(=O)OCC(=O)N(C)C)c(Nc3ccc(OC)cc3)c2c1 [Example 5, 2-(dimethylamino)-2-oxoethyl-4-(4-methoxyphenylamino)-6-(methyl-carbamoyl)quinoline-3-carboxylate] as the molecule, how does the inhibition at 10 µM [1] read?
Answer: Its inhibition at 10 µM is 64%.

Question: And the inhibition at 10 µM [2]?
Answer: Its inhibition at 10 µM is 2%.

Question: What about the “Cell Shape: PAE/VEGFR-2 with VEGF antagonist conc. (μM) that gives inhibition” value [3, 6] of the same molecule?
Answer: The value was “No effect”.

Question: And the minimal effective concentration [5]?
Answer: The minimal effective concentration was 100 µM.

Question: With CNC(=O)c1ccc2ncc(C(=O)OC(C)C(=O)OC)c(Nc3ccc(OC)cc3)c2c1 (stereo not shown) [Example 6, (2-Methoxy-1-methyl-2-oxo-ethyl) 4-[(4-methoxyphenyl)amino]-6-(methylcarbamoyl)quinoline-3-carboxylate] as the molecule, how does the inhibition at 10 µM [1] read?
Answer: The inhibition at 10 µM was 69%.

Question: What about the inhibition at 10 µM [2] of the same molecule?
Answer: Its inhibition at 10 µM is 23%.

Question: What about the “Cell Shape: PAE/VEGFR-2 with VEGF antagonist conc. (μM) that gives inhibition” value [3, 6] of the same molecule?
Answer: Its value is “No effect”.

Question: And the minimal effective concentration [5]?
Answer: Its minimal effective concentration is 50 µM.

Question: What does the source list for CNC(=O)c1ccc2ncc(C(=O)OCOC(C)=O)c(Nc3ccc(OC)cc3)c2c1 [Example 7, Acetoxymethyl 4-[(4-methoxyphenyl)amino]-6-(methylcarbamoyl)quinoline-3-carboxylate]?
Answer: inhibition at 10 µM [1]: 25%; Chemotaxis: VEGFR-2 inhibition of cell migration (%) at 10 μM compound concentration [2]: No effect; Cell Shape: PAE/VEGFR-2 with VEGF antagonist conc. (μM) that gives inhibition [3, 6]: No effect; minimal effective concentration [5]: 50 µM

Question: Which results are given for CNC(=O)c1ccc2ncc(C(=O)OCN(c3ccccc3)S(C)(=O)=O)c(Nc3ccc(OC)cc3)c2c1 [Example 8, (Methylsulfonyl(phenyl)amino)methyl 4-[(4-methoxyphenyl)amino]-6-(methylcarbamoyl)quinoline-3-carboxylate]?
Answer: inhibition at 10 µM [1]: 18%; Chemotaxis: VEGFR-2 inhibition of cell migration (%) at 10 μM compound concentration [2]: No effect; Cell Shape: PAE/VEGFR-2 with VEGF antagonist conc. (μM) that gives inhibition [3, 6]: No effect; minimal effective concentration [5]: 100 µM

Question: What does the source list for CNC(=O)c1ccc2ncc(C(=O)OC(C)C(=O)O)c(Nc3ccc(OC)cc3)c2c1 (stereo not shown) [Example 9, 2-[4-[(4-Methoxyphenyl)amino]-6-(methylcarbamoyl)quinoline-3-carbonyl]oxypropanoic Acid]?
Answer: inhibition at 10 µM [1]: 52%; inhibition at 10 µM [2]: 38%; Cell Shape: PAE/VEGFR-2 with VEGF antagonist conc. (μM) that gives inhibition [3, 6]: No effect; Cell Shape: PAE/VEGFR-3 with VEGF antagonist conc. (μM) that gives inhibition [5]: No effect

Question: Which inhibition at 10 µM [1] does the source give for CNC(=O)c1ccc2ncc(C(=O)OCCn3ccnc3)c(Nc3ccc(OC)cc3)c2c1 [Example 10, 2-Imidazol-1-ylethyl 4-[(4-methoxyphenyl)amino]-6-(methylcarbamoyl)-quinoline-3-carboxylate] here?
Answer: The inhibition at 10 µM was 53%.

Question: And the inhibition at 10 µM [2]?
Answer: The inhibition at 10 µM was 32%.

Question: And the “Cell Shape: PAE/VEGFR-2 with VEGF antagonist conc. (μM) that gives inhibition” value [3, 6]?
Answer: Its value is “No effect”.

Question: And the minimal effective concentration [5]?
Answer: The minimal effective concentration was 10 µM.

Question: For CNC(=O)c1ccc2ncc(C(=O)OCCN3CCOCC3)c(Nc3ccc(OC)cc3)c2c1 [Example 11, 2-Morpholinoethyl 4-[(4-methoxyphenyl)amino]-6-(methylcarbamoyl)-quinoline-3-carboxylate], which inhibition at 10 µM [1] is on record?
Answer: The inhibition at 10 µM was 83%.

Question: And the inhibition at 10 µM [2]?
Answer: Its inhibition at 10 µM is 10%.

Question: And the “Cell Shape: PAE/VEGFR-2 with VEGF antagonist conc. (μM) that gives inhibition” value [3, 6]?
Answer: The value was “No effect”.

Question: What about the minimal effective concentration [5] of the same molecule?
Answer: Its minimal effective concentration is 10 µM.

Question: What does the source list for CNC(=O)c1ccc2ncc(C(=O)OCc3oc(=O)oc3C)c(Nc3ccc(OC)cc3)c2c1 [Example 12, (5-Methyl-2-oxo-1,3-dioxol-4-yl)methyl 4-[(4-methoxyphenyl)amino]-6-(methylcarbamoyl)quinoline-3-carboxylate]?
Answer: inhibition at 10 µM [1]: 46%; Chemotaxis: VEGFR-2 inhibition of cell migration (%) at 10 μM compound concentration [2]: No effect; Cell Shape: PAE/VEGFR-2 with VEGF antagonist conc. (μM) that gives inhibition [3, 6]: No effect; minimal effective concentration [5]: 100 µM

Question: With CNC(=O)c1ccc2ncc(C(=O)OCCn3ccnc3)c(Nc3ccc(F)cc3)c2c1 [Example 13, 4-(4-Fluoro-phenylamino)-6-methylcarbamoyl-quinoline-3-carboxylic acid 2-imidazol-1-yl-ethylester] as the molecule, how does the inhibition at 10 µM [1] read?
Answer: The inhibition at 10 µM was 27%.

Question: What about the “Chemotaxis: VEGFR-2 inhibition of cell migration (%) at 10 μM compound concentration” value [2] of the same molecule?
Answer: Its value is “No effect”.

Question: And the “Cell Shape: PAE/VEGFR-2 with VEGF antagonist conc. (μM) that gives inhibition” value [3, 6]?
Answer: Its value is “No effect”.

Question: And the minimal effective concentration [5]?
Answer: The minimal effective concentration was 50 µM.

Question: Which inhibition at 10 µM [1] does the source give for CNC(=O)c1ccc2ncc(C(=O)OCn3ccnc3)c(Nc3ccc(F)cc3)c2c1 [Example 14, 4-(4-Fluoro-phenylamino)-6-methylcarbamoyl-quinoline-3-carboxylic acid imidazol-1-yl-methylester] here?
Answer: Its inhibition at 10 µM is 30%.

Question: What about the “Chemotaxis: VEGFR-2 inhibition of cell migration (%) at 10 μM compound concentration” value [2] of the same molecule?
Answer: The value was “No effect”.

Question: And the “Cell Shape: PAE/VEGFR-2 with VEGF antagonist conc. (μM) that gives inhibition” value [3, 6]?
Answer: Its value is “No effect”.

Question: And the minimal effective concentration [5]?
Answer: The minimal effective concentration was 50 µM.

Question: Which results are given for CNC(=O)c1ccc2ncc(C(=O)OCCN3CCOCC3)c(Nc3ccc(F)cc3)c2c1 [Example 15, 2-Morpholinoethyl 4-[(4-fluorophenyl)amino]-6-(methylcarbamoyl)quinoline-3-carboxylate]?
Answer: inhibition at 10 µM [1]: 59%; inhibition at 10 µM [2]: 31%; Cell Shape: PAE/VEGFR-2 with VEGF antagonist conc. (μM) that gives inhibition [3, 6]: No effect; minimal effective concentration [5]: 100 µM

— patent US20120065199A1, “SUBSTITUTED QUINOLINES FOR USE AS VEGF INHIBITORS” (CLANOTECH AB, priority 2009, published 2012)
